This note sets out measurements from US11440909B2, “10H-phenothiazine ferroptosis inhibitor as well as the preparative method and the use thereof” (CHENGDU HENGHAO INVESTMENT CO. LIMITED, priority 2018, dated 2022).

The subject of assay [1] is rat middle cerebral artery occlusion (MCAO) stroke model. Briefly: Rat middle cerebral artery occlusion (MCAO) stroke model, different doses. The assay is classed as in vivo. The settings on record: for Infarct weight: tail vein injection, 24 h of reperfusion, TTC stain; for Inhibition rate of cerebral infarction: versus model group infarct range. As to the method: By rat middle cerebral artery occlusion (MCAO) stroke model (also called cerebral ischemia model), the therapeutic effect of the compound of the present invention on ischemic stroke in SD rats at different doses was studied. Male SD rats were selected and induced anesthesia by 2-3.0% isoflurane. The middle cerebral artery was blocked by the thread plug method, resulting in rat ischemia model; the ischemic rats were placed at room temperature and kept their body temperature being 37° C. 60 minutes after ischemia onset, the rats were scored by Bederson neurobehavioral scale to determine whether the model was successfully made. 90 min after ischemia onset, the thread plug was pulled out for reperfusion. […] After 24 h of reperfusion, the animals were scored by NSS scale to evaluate neurological deficit. And then the animals were dissected, brains were collected and subjected to TTC stain. […] The percentage of the weight of the infarct tissue based on the weight of the whole brain was regarded as the infarct range (%), and the inhibition rate (%) of each drug treatment group was calculated based on the infarct range.

For assay [2], the system named is fibrosarcoma cell line HT1080. Description: Ferroptosis screening model (MTT method), Erastin-induced ferroptosis. The assay is classed as cell-based, human. The procedure, abridged:
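HT1080 cells adhered 24 h, then received compound plus Erastin ([…] final) for 72 h at 37 °C, 5% CO2, in triplicate. Viability by MTT with SDS solubilisation, absorbance at 570 nm; inhibition of ferroptosis fitted to give EC50.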
Background: Formazan colour is commonly taken as a measure of viable cells.

[3] abbreviates: positive drug butylphthalide 10 mg/kg.
Where [4] appears, read: Homo sapiens, HT-1080, 72 h, HT1080, ferroptosis inducer Erastin, 72 h, average of three tests, read-out: EC50.
Where [5] appears, read: HT1080, ferroptosis inducer Erastin, 72 h, average of three tests, read-out: EC50.

Where two headings read alike, the source gives them in different places.

The term EC50 denotes the concentration that produces a half-maximal response.

As to `CCCCC1OC(=O)c2ccccc21` (stereo not shown) [Positive drug, butylphthalide, reference compound], the NSS score in assay [1] (positive drug butylphthalide 10 mg/kg, after 24 h of reperfusion) is 8.500 ± 1.401. In assay [1] (setting [3]), the Infarct weight is on record as 0.193 ± 0.075 g and the “Inhibition rate of cerebral infarction” value came to 24.477%. The same compound returned an Infarct range in assay [1] (positive drug butylphthalide 10 mg/kg, infarct tissue weight as % of whole brain weight) of 13.292 ± 4.476 %.

For the compound `CC(c1ccc(N2CCN(C)CC2)cc1)c1ccc2c(c1)Nc1ccccc1S2` (stereo not shown) [Compound A38, 2-(1-(4-(4-methylpiperazin-1-yl)phenyl)ethyl)-10H-phenothiazine], the Infarct weight in assay [1] (high dose 2.5 mg/kg) was found to be 0.126 ± 0.072 g; in assay [1] (low dose 0.5 mg/kg) it was 0.170 ± 0.041 g; in assay [1] (medium dose 1.25 mg/kg), 0.152 ± 0.064 g; in assay [1] (very low dose 0.2 mg/kg), 0.187 ± 0.078 g. Besides, the “Inhibition rate of cerebral infarction” value is recorded as 50.885% in assay [1] (high dose 2.5 mg/kg), 31.209% in assay [1] (low dose 0.5 mg/kg), 38.968% in assay [1] (medium dose 1.25 mg/kg) and 27.307% in assay [1] (very low dose 0.2 mg/kg). Besides, the 50% effective concentration (EC50) is 0.5 nM in assay [2] (setting [4]) and ~1 nM in assay [2] (Homo sapiens, HT-1080, HT1080, Erastin, read-out: EC50 value).

Take `CC1CN(S(=O)(=O)C(C)c2ccc3c(c2)Nc2ccccc2S3)CC(C)N1` (stereo not shown) [Compound C48, 2-(1-((3,5-dimethylpiperazin-1-yl)sulfonyl)ethyl)-10H-phenothiazine]: the EC50 in assay [2] (setting [4]) is 35 nM.

Turning to `C=C(c1cccc(N)c1)c1ccc2c(c1)Nc1ccccc1S2` [Compound B17, 3-(1-(10H-phenothiazin-2-yl)ethenyl)phenylamine], the EC50 in assay [2] (setting [4]) is 17 nM.

For `C=C(c1ccc(C(=O)OC)cc1)c1ccc2c(c1)Nc1ccccc1S2` [Compound B2, methyl 4-(1-(10H-phenothiazin-2-yl)ethenyl)benzoic acid], the EC50 in assay [2] (setting [4]) turned out to be 32 nM.

Turning to `C=C(c1cccc(S(=O)(=O)NC2CCOCC2)c1)c1ccc2c(c1)Nc1ccccc1S2` [Compound B55, 3-(1-(10H-phenothiazin-2-yl)ethenyl)-N-(tetrahydro-2H-pyran-4-yl)benzenesulfonamide], the EC50 in assay [2] (setting [4]) was found to be 12 nM.

As to `COc1ccc(C(C)c2ccc3c(c2)Nc2ccccc2S3)cc1` (stereo not shown) [Compound A30, 2-(1-(4-methoxylphenyl)ethyl)-10H-phenothiazine], in assay [2] (setting [4]), the EC50 worked out at 6 nM.

Consider `Cc1cccc(C(C)c2ccc3c(c2)Nc2ccccc2S3)c1` (stereo not shown) [Compound A8, 2-(1-(m-methylphenyl)ethyl)-10H-phenothiazine], for which the EC50 in assay [2] (setting [4]) was 5 nM.

For the compound `CC(c1ccc2c(c1)Nc1ccccc1S2)S(=O)(=O)N1CCC[C@@H]1C` (stereo partly shown) [Compound C42], the EC50 in assay [2] (setting [4]) is 335 nM.

`C=C(c1ccc(S(=O)(=O)NCC2CCOCC2)cc1)c1ccc2c(c1)Nc1ccccc1S2` [Compound B56, 4-(1-(10H-phenothiazin-2-yl)ethenyl)-N-((tetrahydro-2H-pyran-4-yl)methyl)Benzenesulfonamide]: the EC50 in assay [2] (setting [4]) was 22 nM.

As for `CC(c1ccc(F)c(Cl)c1)c1ccc2c(c1)Nc1ccccc1S2` (stereo not shown) [Compound A40, 2-(1-(3-chloro-4-fluorophenyl)ethyl)-10H-phenothiazine], the EC50 in assay [2] (setting [4]) came out at 5 nM.

Regarding `CC(c1ccccc1)c1ccc2c(c1)Nc1ccccc1S2` (stereo not shown) [Compound B1, 2-(1-phenylethyl)-10H-phenothiazine], the EC50 in assay [2] (setting [5]) was found to be 10 nM.

Take `C=C(c1ccc(NC(N)=O)cc1)c1ccc2c(c1)Nc1ccccc1S2` [Compound B10, N-(4-(1-(10H-phenothiazin-2-yl)ethenyl)phenyl)urea]: in assay [2] (setting [4]), the 50% effective concentration (EC50) came out at 10 nM.

Consider `C=C(c1ccc(N2CCOCC2)cc1)c1ccc2c(c1)Nc1ccccc1S2` [Compound B15, 4-(4-(1-(10H-phenothiazin-2-yl)ethenyl)phenyl)morpholine], for which the EC50 in assay [2] (setting [5]) worked out at 680 nM.

As for `CC(c1ccc2c(c1)Nc1ccccc1S2)S(=O)(=O)N1CCC[C@@H](NC(=O)OC(C)(C)C)C1` (stereo partly drawn) [Compound C32, t-butyl ((3R)-1-((1-(10H-phenothiazin-2-yl)ethyl)sulfonyl)piperidin-3-yl)carbamate], the EC50 in assay [2] (setting [4]) came to 586 nM.

In the case of `COc1ccc(C(C)c2ccc3c(c2)Nc2ccccc2S3)cc1OC` (stereo not shown) [Compound A47, 2-(1-(3,4-dimethoxylphenyl)ethyl)-10H-phenothiazine], in assay [2] (setting [4]), the EC50 came out at 7 nM.

As for `CC(c1ccc2c(c1)Nc1ccccc1S2)S(=O)(=O)N1CC[C@@H](O)C1` (stereo partly shown) [Compound C14], in assay [2] (setting [4]), the EC50 was determined as 260 nM.

For the compound `CC(c1ccc2c(c1)Nc1ccccc1S2)S(=O)(=O)N1CCC(N2CCCCC2)CC1` (stereo not shown) [Compound C43, 2-(1-([1,4′-dipiperidin]-1′-ylsulfonyl)ethyl)-10H-phenothiazine], the EC50 in assay [2] (setting [4]) came out at 49 nM.

With `CC(c1ccc2c(c1)Nc1ccccc1S2)c1cc2ccccc2o1` (stereo not shown) [Compound A67, 2-(1-(benzofuran-2-yl)ethyl)-10H-phenothiazine], the EC50 in assay [2] (setting [4]) amounted to 16 nM.

As to `C=C(c1cccc(C(=O)OC)c1)c1ccc2c(c1)Nc1ccccc1S2` [Compound B31, methyl 3-(1-(10H-phenothiazin-2-yl)ethenyl)benzoic acid], the EC50 in assay [2] (setting [4]) stood at 51 nM.

With `CCOc1ccc2cc(C(C)c3ccc4c(c3)Nc3ccccc3S4)ccc2c1` (stereo not shown) [Compound A70, 2-(1-(6-ethoxylnaphthalen-2-yl)ethyl)-10H-phenothiazine], the EC50 in assay [2] (setting [4]) worked out at 18 nM.

As for `CC(=O)N1CCCN(S(=O)(=O)C(C)c2ccc3c(c2)Nc2ccccc2S3)CC1` (stereo not shown) [Compound C25, 1-(4-((1-(10H-phenothiazin-2-yl)ethyl)sulfonyl)-1,4-homopiperazin-1-yl)-1-ethanone], the EC50 in assay [2] (setting [4]) was 405 nM.

Regarding `C=C(c1cnc(N2CCN(C)CC2)nc1)c1ccc2c(c1)Nc1ccccc1S2` [Compound B49, 2-(1-(2-(4-methylpiperazin-1-yl)pyrimidin-5-yl)ethenyl)-10H-phenothiazine], in assay [2] (setting [4]), the EC50 stood at 2 nM.

For the compound `C=C(c1cccc(N2CCOCC2)c1)c1ccc2c(c1)Nc1ccccc1S2` [Compound B36, 4-(3-(1-(10H-phenothiazin-2-yl)ethenyl)phenyl)morpholine], the EC50 in assay [2] (setting [4]) is 30 nM.

As to `CC(c1ccc2c(c1)Nc1ccccc1S2)S(=O)(=O)N1CCN(c2ncccn2)CC1` (stereo not shown) [Compound C52, 2-(1-((4-(pyrimidin-2-yl)piperazin-1-yl)sulfonyl)ethyl)-10H-phenothiazine], in assay [2] (setting [4]), the EC50 came out at 69 nM.

For the compound `COc1cc(C(C)c2ccc3c(c2)Nc2ccccc2S3)ccc1F` (stereo not shown) [Compound A51, 2-(1-(4-fluoro-3-methoxylphenyl)ethyl)-10H-phenothiazine], in assay [2] (setting [4]), the EC50 was 22 nM.

As to `CC(c1ccc2c(c1)Nc1ccccc1S2)S(=O)(=O)N1CCOCC1` (stereo not shown) [Compound C1, 4-((1-(10H-phenothiazin-2-yl)ethyl)sulfonyl)morpholine], the EC50 in assay [2] (setting [4]) came to 68 nM.

On to `C=C(c1cccc(C#N)c1)c1ccc2c(c1)Nc1ccccc1S2` [Compound B32, 3-(1-(10H-phenothiazin-2-yl)ethenyl)benzonitrile], for which, in assay [2] (setting [4]), the EC50 was 89 nM.

Turning to `CC(c1cccc(C#N)c1)c1ccc2c(c1)Nc1ccccc1S2` (stereo not shown) [Compound A5, 3-(1-(10H-phenothiazin-2-yl)ethyl)benzonitrile], the EC50 in assay [2] (setting [4]) is 15 nM.

`CCOc1ccc(C(C)c2ccc3c(c2)Nc2ccccc2S3)cn1` (stereo not shown) [Compound A75, 2-(1-(6-ethoxylpyridin-3-yl)ethyl)-10H-phenothiazine]: in assay [2] (setting [4]), the EC50 turned out to be 23 nM.

For `Cc1cc(Cl)cc(C(C)c2ccc3c(c2)Nc2ccccc2S3)c1` (stereo not shown) [Compound A62, 2-(1-(3-chloro-5-methylphenyl)ethyl)-10H-phenothiazine], the EC50 in assay [2] (setting [4]) worked out at 24 nM.

With `C=C(c1cccc(C(F)(F)F)c1)c1ccc2c(c1)Nc1ccccc1S2` [Compound B30, 2-(1-(3-(trifluoromethyl)phenyl)ethenyl)-10H-phenothiazine], in assay [2] (setting [4]), the EC50 is 45 nM.

In the case of `Cc1cc(C(C)c2ccc3c(c2)Nc2ccccc2S3)ccc1OCc1ccccc1` (stereo not shown) [Compound A54, 2-(1-(4-(benzyloxyl)-3-methylphenyl)ethyl)-10H-phenothiazine], the EC50 in assay [2] (setting [4]) was determined as 68 nM.

Consider `CC(c1cc(F)cc(F)c1)c1ccc2c(c1)Nc1ccccc1S2` (stereo not shown) [Compound A56, 2-(1-(3,5-difluorophenyl)ethyl)-10H-phenothiazine], for which the EC50 in assay [2] (setting [4]) is 19 nM.

Regarding `C=C(c1ccc(C(C)C)cc1)c1ccc2c(c1)Nc1ccccc1S2` [Compound B8, 2-(1-(4-isopropylphenyl)ethenyl)-10H-phenothiazine], in assay [2] (setting [4]), the EC50 is 40 nM.

Regarding `CC(c1ccc(Cl)c(Cl)c1)c1ccc2c(c1)Nc1ccccc1S2` (stereo not shown) [Compound A42, 2-(1-(3,4-dichlorophenyl)ethyl)-10H-phenothiazine], the EC50 in assay [2] (setting [4]) is 16 nM.

For `CC(c1ccc2c(c1)Nc1ccccc1S2)S(=O)(=O)N1CCCC(CO)C1` (stereo not shown) [Compound C38, (1-((1-(10H-phenothiazin-2-yl)ethyl)sulfonyl)piperidin-3-yl)methanol], the EC50 in assay [2] (setting [4]) stood at 229 nM.
